Numbers after ± are expanded uncertainties.
Assay: excess molar enthalpy (molar enthalpy of mixing); xn = mol fraction of the nth substance listed
Conditions: 298.15 K, 101 kPa, Liquid, Calvet calorimetry

CCCCCCCCC [nonane] + CCCO
Conditions | excess molar enthalpy [kcal/mol]
x2 = 0.0794 | 0.118 ± 0.00263
x2 = 0.1401 | 0.144 ± 0.00311
x2 = 0.2595 | 0.17 ± 0.00359
x2 = 0.3588 | 0.174 ± 0.00382
x2 = 0.441 | 0.173 ± 0.00382
x2 = 0.5192 | 0.165 ± 0.00359
x2 = 0.5829 | 0.154 ± 0.00335
x2 = 0.7046 | 0.129 ± 0.00287
x2 = 0.7517 | 0.117 ± 0.00263
x2 = 0.7992 | 0.1 ± 0.00215
x2 = 0.8361 | 0.086 ± 0.00191
x2 = 0.878 | 0.0674 ± 0.00143
x2 = 0.911 | 0.0521 ± 0.0012
x2 = 0.9469 | 0.0332 ± 0.000717
x2 = 0.9689 | 0.0206 ± 0.000478
